pIC50: −log10 of the molar value.

This test deals with human recombinant KAT-II (Homo sapiens (Human), UniProt Q8N5Z0). The test is described as follows: KAT-II inhibitory test. It is filed as biochemical. Particulars: 3.0 μmol/L kynurenine, 37° C., 1 hr, pH 8.0; kynurenic acid quantified by HPLC. In a few lines: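 E. coli-expressed His/MBP-tagged human KAT-II (2.0 ng/μL) incubated with 3.0 μmol/L kynurenine and 10 μmol/L pyridoxal phosphate in Tris-acetate pH 8.0, 1 hr at 37 °C. Reaction stopped with TCA. Kynurenic acid quantified by reversed-phase HPLC with fluorescence detection (ex 354/em 460 nm), duplicate at each concentration.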
human recombinant KAT-II, sequence (Q8N5Z0 30-425): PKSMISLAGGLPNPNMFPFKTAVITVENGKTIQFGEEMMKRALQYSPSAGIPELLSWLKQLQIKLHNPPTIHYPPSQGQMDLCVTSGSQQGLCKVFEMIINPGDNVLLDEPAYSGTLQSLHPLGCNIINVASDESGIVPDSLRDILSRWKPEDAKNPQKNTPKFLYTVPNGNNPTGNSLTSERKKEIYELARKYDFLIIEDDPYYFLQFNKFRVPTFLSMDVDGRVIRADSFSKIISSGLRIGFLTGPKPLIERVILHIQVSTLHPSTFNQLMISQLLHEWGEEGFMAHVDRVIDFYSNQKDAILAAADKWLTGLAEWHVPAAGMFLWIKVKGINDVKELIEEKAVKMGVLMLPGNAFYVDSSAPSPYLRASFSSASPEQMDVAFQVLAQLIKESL
In the case of `CCc1nc2sc(N3CCC[C@@H]3C(=O)NCc3nnc4ccccn34)nn2c(=O)c1F` [Example 686, (R)-1-(7-ethyl-6-fluoro-5-oxo-5H-[1,3,4]thiadiazolo[3,2-a]pyrimidin-2-yl)-N-[([1,2,4]triazolo[4,3-a]pyridin-3-yl)methyl]pyrrolidine-2-carboxamide], the pIC50 is 4.49.

In the case of `CCc1nc2sc(N3CCC[C@@H]3C(=O)NCc3ccc(Cl)cc3Cl)nn2c(=O)c1F` [Example 688, (R)-N-(2,4-dichlorobenzyl)-1-(7-ethyl-6-fluoro-5-oxo-5H-[1,3,4]thiadiazolo[3,2-a]pyrimidin-2-yl)pyrrolidine-2-carboxamide], the pIC50 was 7.54.

As to `Cc1nc2sc(N3CCC[C@@H]3C(=O)NCc3ccccc3)nn2c(=O)c1C1=CCOCC1` [Example 698, (R)-N-benzyl-1-[6-(3,6-dihydro-2H-pyran-4-yl)-7-methyl-5-oxo-5H-[1,3,4]thiadiazolo[3,2-a]pyrimidin-2-yl]pyrrolidine-2-carboxamide], the pIC50 is 7.17.

For `CCc1cc(=O)n2nc(N3CCC[C@@H]3C(=O)NCc3ccccc3)sc2c1` [Example 699, (R)-N-benzyl-1-(7-ethyl-5-oxo-5H-[1,3,4]thiadiazolo[3,2-a]pyridin-2-yl)pyrrolidine-2-carboxamide], the pIC50 was 6.64.

As to `CCc1c(Cl)c(=O)n2nc(N3CCC[C@@H]3C(=O)NCc3ccccc3)sc2c1Cl` [Example 701, (R)-N-benzyl-1-(6,8-dichloro-7-ethyl-5-oxo-5H-[1,3,4]thiadiazolo[3,2-a]pyridin-2-yl)pyrrolidine-2-carboxamide], the pIC50 was 7.30.

On to `CCc1nc2ccc(N3CCC[C@@H]3C(=O)NCc3ccccc3)nc2c(=O)n1C` [Example 703, (R)-N-benzyl-1-(2-ethyl-3-methyl-4-oxo-3,4-dihydropyrido[3,2-d]pyrimidin-6-yl)pyrrolidine-2-carboxamide], for which the pIC50 was 6.96.

As to `Cc1nc2ccc(N3CCC[C@@H]3C(=O)NCc3ccccc3)nc2c(=O)n1CC(F)(F)F` [Example 706, (R)-N-benzyl-1-[2-methyl-4-oxo-3-(2,2,2-trifluoroethyl)-3,4-dihydropyrido[3,2-d]pyrimidin-6-yl]pyrrolidine-2-carboxamide], the pIC50 was 6.77.

As to `Cn1c(C(F)(F)F)nc2ccc(N3CCC[C@@H]3C(=O)NCc3ccccc3)nc2c1=O` [Example 707, (R)-N-benzyl-1-(3-methyl-4-oxo-2-trifluoromethyl-3,4-dihydropyrido[3,2-d]pyrimidin-6-yl)pyrrolidine-2-carboxamide], the pIC50 was 6.17.

With `O=C(NCc1ccccc1)[C@H]1CCCN1c1ccc2nc(C3(Cl)CC3)[nH]c(=O)c2n1` [Example 711, (R)-N-benzyl-1-[2-(1-chlorocyclopropyl)-4-oxo-3,4-dihydropyrido[3,2-d]pyrimidin-6-yl]pyrrolidine-2-carboxamide], the negative logarithm of the IC50 (pIC50) is 6.72.

Turning to `CC(C)c1nc2ccc(N3CCC[C@@H]3C(=O)NCc3ccccc3)nc2c(=O)[nH]1` [Example 712, (R)-N-benzyl-1-[4-oxo-2-(propan-2-yl)-3,4-dihydropyrido[3,2-d]pyrimidin-6-yl]pyrrolidine-2-carboxamide], the pIC50 was 7.21.

For the molecule `O=C(NCc1ccccc1)[C@H]1CCCN1c1ccc2nc(-c3ccccc3F)[nH]c(=O)c2n1` [Example 713, (R)-N-benzyl-1-[2-(2-fluorophenyl)-4-oxo-3,4-dihydropyrido[3,2-d]pyrimidin-6-yl]pyrrolidine-2-carboxamide], the pIC50 is 7.06.

As to `O=C(NCc1ccccc1)[C@H]1CCCN1c1ccc2nc(-c3ccccc3)cc(=O)n2n1` [Example 714, (R)-N-benzyl-1-(4-oxo-2-phenyl-4H-pyrimido[1,2-b]pyridazin-7-yl)pyrrolidine-2-carboxamide], the pIC50 is 6.23.

For the molecule `CCCc1cc(=O)n2nc(N3CCC[C@@H]3C(=O)NC3(c4ccccc4)CC3)ccc2n1` [Example 718, (R)-1-(4-oxo-2-propyl-4H-pyrimido[1,2-b]pyridazin-7-yl)-N-(1-phenylcyclopropyl)pyrrolidine-2-carboxamide], the pIC50 is 6.51.

Consider `CC(C)c1cc(=O)n2nc(N3CCC[C@@H]3C(=O)NCc3ccccc3)ccc2n1` [Example 720, (R)-N-benzyl-1-[4-oxo-2-(propan-2-yl)-4H-pyrimido[1,2-b]pyridazin-7-yl]pyrrolidine-2-carboxamide], for which the pIC50 was 6.26.

`CC(C)c1nc2ccc(N3CCC[C@@H]3C(=O)NCc3ccccc3)nn2c(=O)c1F` [Example 722, (R)-N-benzyl-1-[3-fluoro-4-oxo-2-(propan-2-yl)-4H-pyrimido[1,2-b]pyridazin-7-yl]pyrrolidine-2-carboxamide]: the pIC50 was 7.05.

`O=C(NCc1ccccc1)[C@H]1CCCN1c1nc2c(=O)[nH]c(N3CCCCC3)nc2s1` [Example 728, (R)-N-benzyl-1-[7-oxo-5-(piperidin-1-yl)-6,7-dihydro[1,3]thiazolo[5,4-d]pyrimidin-2-yl]pyrrolidine-2-carboxamide]: the pIC50 is 7.62.

One may read the pIC50 as −log10 of the IC50, conventionally taken in molar units.

The values above are taken from patent US10065972B2, “Bicyclic or tricyclic heterocyclic compound” (MITSUBISHI TANABE PHARMA CORPORATION, priority 2014, dated 2018).
